Data on 2 molecules can be found in ChEMBL document CHEMBL4387741, “Optimization of novel reversible Bruton's tyrosine kinase inhibitors identified using Tethering-fragment-based screens” (Bioorg Med Chem, 2019).

Assay [1] concerns the target Calcium/calmodulin-dependent protein kinase type IV (Homo sapiens) (UniProt Q16566). Put plainly: Inhibition of wild-type human partial length CAMK4 (A22 to A322 residues) expressed in bacterial expression system at 1 uM by Kinomescan method relative to control.
Assay [2] deals with Aurora kinase A (Homo sapiens) (UniProt O14965). Description: Inhibition of wild-type human partial length AURKA (E122 to K401 residues) expressed in mammalian expression system at 1 uM by Kinomescan method relative to control.
Chain of Aurora kinase A (Homo sapiens) (O14965 whole entry, the tested form may be a part): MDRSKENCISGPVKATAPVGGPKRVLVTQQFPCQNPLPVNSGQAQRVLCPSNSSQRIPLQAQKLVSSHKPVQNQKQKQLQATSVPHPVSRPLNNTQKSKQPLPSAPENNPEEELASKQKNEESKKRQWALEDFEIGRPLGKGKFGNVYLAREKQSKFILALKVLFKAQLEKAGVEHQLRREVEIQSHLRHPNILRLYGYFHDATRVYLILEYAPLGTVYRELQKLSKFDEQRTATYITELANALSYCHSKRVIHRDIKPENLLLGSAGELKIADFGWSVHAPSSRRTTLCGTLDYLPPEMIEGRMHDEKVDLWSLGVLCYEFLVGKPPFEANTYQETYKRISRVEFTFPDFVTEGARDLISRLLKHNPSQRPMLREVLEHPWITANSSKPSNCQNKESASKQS
Assay [3] deals with Serine/threonine-protein kinase SBK1 (Homo sapiens) (UniProt Q52WX2). Put plainly: Inhibition of wild-type human partial length SBK1 (P23 to P348 residues) expressed in mammalian expression system at 1 uM by Kinomescan method relative to control.
Chain of Serine/threonine-protein kinase SBK1 (Homo sapiens) (Q52WX2 whole entry, the tested form may be a part): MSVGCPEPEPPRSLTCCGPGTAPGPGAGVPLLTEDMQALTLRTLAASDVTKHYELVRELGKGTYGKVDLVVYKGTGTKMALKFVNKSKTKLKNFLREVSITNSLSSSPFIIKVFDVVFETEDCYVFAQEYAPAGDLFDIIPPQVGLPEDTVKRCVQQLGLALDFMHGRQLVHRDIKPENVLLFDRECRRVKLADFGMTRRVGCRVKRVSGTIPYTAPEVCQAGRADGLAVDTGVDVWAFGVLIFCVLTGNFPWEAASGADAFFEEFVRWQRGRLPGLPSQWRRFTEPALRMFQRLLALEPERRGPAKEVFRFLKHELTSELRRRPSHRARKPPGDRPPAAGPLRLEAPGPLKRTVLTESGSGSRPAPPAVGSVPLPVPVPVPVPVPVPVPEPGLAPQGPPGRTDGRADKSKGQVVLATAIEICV
The target in assay [4] is Macrophage colony-stimulating factor 1 receptor (Homo sapiens) (UniProt P07333). Put plainly: Inhibition of wild-type human partial length autoinhibited CSF1R (Y538 to S939 residues) expressed in mammalian expression system at 1 uM by Kinomescan method relative to control.
For assay [5], the target named is Tyrosine-protein kinase Lyn (Homo sapiens) (UniProt P07948). Put plainly: Inhibition of wild-type human partial length LYN (C219 to Q511 residues) expressed in bacterial expression system at 1 uM by Kinomescan method relative to control.
Assay [6] has as its system Tyrosine-protein kinase ABL1 (Homo sapiens), P00519 [H396P]. Description: Inhibition of human phosphorylated ABL1 H396P mutant (S229 to K512 residues) expressed in mammalian expression system at 1 uM by Kinomescan method relative to control.
Assay [7] relates to Mast/stem cell growth factor receptor Kit (Homo sapiens), P10721 [V559D,T670I]. Put plainly: Inhibition of human partial length KIT V559D/T670I double mutant (Y545 to D952 residues) expressed in bacterial expression system at 1 uM by Kinomescan method relative to control.
In assay [8] the target is Mitogen-activated protein kinase 13 (Homo sapiens) (UniProt O15264). Description: Inhibition of wild-type human full length p38-delta (M1 to L365 residues) expressed in bacterial expression system at 1 uM by Kinomescan method relative to control.
Chain of Mitogen-activated protein kinase 13 (Homo sapiens) (O15264 whole entry, the tested form may be a part): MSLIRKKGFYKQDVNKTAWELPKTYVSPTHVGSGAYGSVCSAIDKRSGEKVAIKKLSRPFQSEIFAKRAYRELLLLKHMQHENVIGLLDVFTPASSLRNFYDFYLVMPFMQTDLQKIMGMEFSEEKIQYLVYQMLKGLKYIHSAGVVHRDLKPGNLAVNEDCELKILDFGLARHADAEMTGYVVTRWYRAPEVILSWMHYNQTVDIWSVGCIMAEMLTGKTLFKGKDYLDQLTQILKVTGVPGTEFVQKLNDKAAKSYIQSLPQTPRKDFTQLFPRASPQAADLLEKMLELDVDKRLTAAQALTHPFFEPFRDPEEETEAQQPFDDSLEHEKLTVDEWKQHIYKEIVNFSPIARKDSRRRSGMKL
Assay [9] has as its target Protein kinase C delta type (Homo sapiens) (UniProt Q05655). Description: Inhibition of wild-type human partial length PRKCD (Q328 to D676 residues) expressed in bacterial expression system at 1 uM by Kinomescan method relative to control.
The target of assay [10] is Phosphatidylinositol 4,5-bisphosphate 3-kinase catalytic subunit delta isoform (Homo sapiens) (UniProt O00329). Description: Inhibition of wild-type human partial length PIK3CD (R108 to Q1044 residues) expressed in mammalian expression system at 1 uM by Kinomescan method relative to control.
For assay [11], the system named is Proto-oncogene tyrosine-protein kinase receptor Ret (Homo sapiens), P07949 [M918T]. Description: Inhibition of human partial length RET M918T mutant (E713 to D1014 residues) expressed in bacterial expression system at 1 uM by Kinomescan method relative to control.
Assay [12] addresses Rho-associated protein kinase 2 (Homo sapiens) (UniProt O75116). Put plainly: Inhibition of wild-type human partial length ROCK2 (M1 to T431 residues) expressed in mammalian expression system at 1 uM by Kinomescan method relative to control.
Assay [13] addresses Serine/threonine-protein kinase D1 (Homo sapiens) (UniProt Q15139). Put plainly: Inhibition of wild-type human partial length PRKD1 (G551 to E870 residues) expressed in bacterial expression system at 1 uM by Kinomescan method relative to control.
Assay [14] concerns the target Dual specificity mitogen-activated protein kinase kinase 4 (Homo sapiens) (UniProt P45985). Put plainly: Inhibition of wild-type human partial length MEK4 (S84 to D399 residues) expressed in mammalian expression system at 10 uM by Kinomescan method relative to control.
Assay [15] addresses Protein kinase C theta type (Homo sapiens) (UniProt Q04759). Description: Inhibition of wild-type human partial length PRKCQ (L350 to S706 residues) expressed in bacterial expression system at 10 uM by Kinomescan method relative to control.
The target of assay [16] is Tyrosine-protein kinase SYK (Homo sapiens) (UniProt P43405). Description: Inhibition of wild-type human partial length SYK (D354 to N635 residues) expressed in bacterial expression system at 10 uM by Kinomescan method relative to control.
The target in assay [17] is Receptor-type tyrosine-protein kinase FLT3 (Homo sapiens) (UniProt P36888). Put plainly: Inhibition of wild-type human partial length autoinhibited FLT3 (H564 to Y969 residues) expressed in mammalian expression system at 10 uM by Kinomescan method relative to control.
Assay [18] relates to Phosphatidylinositol 4,5-bisphosphate 3-kinase catalytic subunit alpha isoform (Homo sapiens), P42336 [H1047Y]. Put plainly: Inhibition of human partial length PIK3CA H1047Y mutant (R108 to N1068 residues) expressed in mammalian expression system at 10 uM by Kinomescan method relative to control.
In assay [19] the test system is Phosphatidylinositol 4,5-bisphosphate 3-kinase catalytic subunit alpha isoform (Homo sapiens), P42336 [E545A]. Description: Inhibition of human partial length PIK3CA E545A mutant (R108 to N1068 residues) expressed in mammalian expression system at 10 uM by Kinomescan method relative to control.
The target in assay [20] is Serine/threonine-protein kinase Nek1 (Homo sapiens) (UniProt Q96PY6). Description: Inhibition of wild-type human partial length NEK1 (M1 to K278 residues) expressed in bacterial expression system at 10 uM by Kinomescan method relative to control.
Chain of Serine/threonine-protein kinase Nek1 (Homo sapiens) (Q96PY6 whole entry, the tested form may be a part): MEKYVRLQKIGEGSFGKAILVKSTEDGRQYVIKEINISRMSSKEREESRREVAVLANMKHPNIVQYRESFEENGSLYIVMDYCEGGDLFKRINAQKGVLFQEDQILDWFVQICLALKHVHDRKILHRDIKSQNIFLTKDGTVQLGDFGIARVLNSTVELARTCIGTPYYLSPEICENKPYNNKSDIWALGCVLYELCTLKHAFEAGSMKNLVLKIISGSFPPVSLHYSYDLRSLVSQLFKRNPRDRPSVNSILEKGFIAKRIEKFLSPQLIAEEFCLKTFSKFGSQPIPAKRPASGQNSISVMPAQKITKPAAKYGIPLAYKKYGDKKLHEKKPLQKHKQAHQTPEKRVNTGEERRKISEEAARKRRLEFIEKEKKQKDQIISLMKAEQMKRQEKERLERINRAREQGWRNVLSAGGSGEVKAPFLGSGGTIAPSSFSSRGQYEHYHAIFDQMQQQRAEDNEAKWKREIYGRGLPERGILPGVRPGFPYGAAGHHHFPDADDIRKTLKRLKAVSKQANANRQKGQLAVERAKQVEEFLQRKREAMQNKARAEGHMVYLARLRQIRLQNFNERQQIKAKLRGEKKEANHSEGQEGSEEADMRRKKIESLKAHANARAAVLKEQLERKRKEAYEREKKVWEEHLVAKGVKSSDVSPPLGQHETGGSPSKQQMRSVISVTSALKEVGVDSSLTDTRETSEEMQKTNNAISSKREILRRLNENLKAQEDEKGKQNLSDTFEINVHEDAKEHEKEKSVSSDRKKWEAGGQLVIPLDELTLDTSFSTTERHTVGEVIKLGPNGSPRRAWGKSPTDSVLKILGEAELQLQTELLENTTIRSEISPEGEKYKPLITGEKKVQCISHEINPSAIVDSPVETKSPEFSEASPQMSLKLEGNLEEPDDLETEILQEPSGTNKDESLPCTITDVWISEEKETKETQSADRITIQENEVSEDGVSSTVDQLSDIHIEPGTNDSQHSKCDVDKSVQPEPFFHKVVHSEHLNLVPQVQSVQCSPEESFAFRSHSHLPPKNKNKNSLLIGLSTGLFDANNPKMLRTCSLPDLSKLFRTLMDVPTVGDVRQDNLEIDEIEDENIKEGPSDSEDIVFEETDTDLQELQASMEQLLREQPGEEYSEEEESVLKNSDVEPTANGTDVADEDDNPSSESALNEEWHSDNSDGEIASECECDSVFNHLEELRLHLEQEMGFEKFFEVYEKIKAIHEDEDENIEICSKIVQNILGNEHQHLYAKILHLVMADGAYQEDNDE
Assay [21] addresses 1-phosphatidylinositol 3-phosphate 5-kinase (Homo sapiens) (UniProt Q9Y2I7). Put plainly: Inhibition of wild-type human partial length PIKFYVE (F1512 to C2098 residues) expressed in mammalian expression system at 10 uM by Kinomescan method relative to control.
Assay [22] concerns the target LIM domain kinase 1 (Homo sapiens) (UniProt P53667). Put plainly: Inhibition of wild-type human full length LIMK1 (M1 to D647 residues) expressed in bacterial expression system at 10 uM by Kinomescan method relative to control.
Assay [23] deals with Casein kinase I isoform gamma-3 (Homo sapiens) (UniProt Q9Y6M4). Description: Inhibition of wild-type human full length CSNK1G3 (M1 to K447 residues) expressed in bacterial expression system at 10 uM by Kinomescan method relative to control.
For assay [24], the target named is Tyrosine-protein kinase JAK1 (Homo sapiens) (UniProt P23458). Description: Inhibition of wild-type human partial length JAK1 JH2 pseudokinase domain (R537 to D855 residues) expressed in mammalian expression system at 10 uM by Kinomescan method relative to control.
In assay [25] the target is Interferon-induced, double-stranded RNA-activated protein kinase (Homo sapiens) (UniProt P19525). Description: Inhibition of wild-type human partial length PRKR (F247 to C551 residues) expressed in bacterial expression system at 10 uM by Kinomescan method relative to control.
Chain of Interferon-induced, double-stranded RNA-activated protein kinase (Homo sapiens) (P19525 whole entry, the tested form may be a part): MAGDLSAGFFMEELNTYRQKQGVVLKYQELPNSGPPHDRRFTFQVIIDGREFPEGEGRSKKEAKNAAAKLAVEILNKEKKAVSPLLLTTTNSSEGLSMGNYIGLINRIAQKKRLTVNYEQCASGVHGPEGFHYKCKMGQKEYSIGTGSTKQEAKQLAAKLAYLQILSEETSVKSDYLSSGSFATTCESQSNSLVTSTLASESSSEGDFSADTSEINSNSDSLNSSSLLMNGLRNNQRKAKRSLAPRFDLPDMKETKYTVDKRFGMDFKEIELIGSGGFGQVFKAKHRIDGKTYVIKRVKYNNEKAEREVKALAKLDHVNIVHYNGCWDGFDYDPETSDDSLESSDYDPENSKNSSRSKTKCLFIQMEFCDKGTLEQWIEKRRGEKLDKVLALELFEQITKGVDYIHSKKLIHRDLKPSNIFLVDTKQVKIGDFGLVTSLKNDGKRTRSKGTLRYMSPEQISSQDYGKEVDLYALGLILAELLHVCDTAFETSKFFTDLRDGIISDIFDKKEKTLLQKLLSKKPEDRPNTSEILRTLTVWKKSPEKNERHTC
Assay [26] addresses Serine/threonine-protein kinase WNK2 (Homo sapiens) (UniProt Q9Y3S1). Description: Inhibition of wild-type human partial length WNK2 (V47 to D482 residues) expressed in mammalian expression system at 10 uM by Kinomescan method relative to control.

Chain of 1-phosphatidylinositol 3-phosphate 5-kinase (Homo sapiens) (Q9Y2I7 whole entry, the tested form may be a part): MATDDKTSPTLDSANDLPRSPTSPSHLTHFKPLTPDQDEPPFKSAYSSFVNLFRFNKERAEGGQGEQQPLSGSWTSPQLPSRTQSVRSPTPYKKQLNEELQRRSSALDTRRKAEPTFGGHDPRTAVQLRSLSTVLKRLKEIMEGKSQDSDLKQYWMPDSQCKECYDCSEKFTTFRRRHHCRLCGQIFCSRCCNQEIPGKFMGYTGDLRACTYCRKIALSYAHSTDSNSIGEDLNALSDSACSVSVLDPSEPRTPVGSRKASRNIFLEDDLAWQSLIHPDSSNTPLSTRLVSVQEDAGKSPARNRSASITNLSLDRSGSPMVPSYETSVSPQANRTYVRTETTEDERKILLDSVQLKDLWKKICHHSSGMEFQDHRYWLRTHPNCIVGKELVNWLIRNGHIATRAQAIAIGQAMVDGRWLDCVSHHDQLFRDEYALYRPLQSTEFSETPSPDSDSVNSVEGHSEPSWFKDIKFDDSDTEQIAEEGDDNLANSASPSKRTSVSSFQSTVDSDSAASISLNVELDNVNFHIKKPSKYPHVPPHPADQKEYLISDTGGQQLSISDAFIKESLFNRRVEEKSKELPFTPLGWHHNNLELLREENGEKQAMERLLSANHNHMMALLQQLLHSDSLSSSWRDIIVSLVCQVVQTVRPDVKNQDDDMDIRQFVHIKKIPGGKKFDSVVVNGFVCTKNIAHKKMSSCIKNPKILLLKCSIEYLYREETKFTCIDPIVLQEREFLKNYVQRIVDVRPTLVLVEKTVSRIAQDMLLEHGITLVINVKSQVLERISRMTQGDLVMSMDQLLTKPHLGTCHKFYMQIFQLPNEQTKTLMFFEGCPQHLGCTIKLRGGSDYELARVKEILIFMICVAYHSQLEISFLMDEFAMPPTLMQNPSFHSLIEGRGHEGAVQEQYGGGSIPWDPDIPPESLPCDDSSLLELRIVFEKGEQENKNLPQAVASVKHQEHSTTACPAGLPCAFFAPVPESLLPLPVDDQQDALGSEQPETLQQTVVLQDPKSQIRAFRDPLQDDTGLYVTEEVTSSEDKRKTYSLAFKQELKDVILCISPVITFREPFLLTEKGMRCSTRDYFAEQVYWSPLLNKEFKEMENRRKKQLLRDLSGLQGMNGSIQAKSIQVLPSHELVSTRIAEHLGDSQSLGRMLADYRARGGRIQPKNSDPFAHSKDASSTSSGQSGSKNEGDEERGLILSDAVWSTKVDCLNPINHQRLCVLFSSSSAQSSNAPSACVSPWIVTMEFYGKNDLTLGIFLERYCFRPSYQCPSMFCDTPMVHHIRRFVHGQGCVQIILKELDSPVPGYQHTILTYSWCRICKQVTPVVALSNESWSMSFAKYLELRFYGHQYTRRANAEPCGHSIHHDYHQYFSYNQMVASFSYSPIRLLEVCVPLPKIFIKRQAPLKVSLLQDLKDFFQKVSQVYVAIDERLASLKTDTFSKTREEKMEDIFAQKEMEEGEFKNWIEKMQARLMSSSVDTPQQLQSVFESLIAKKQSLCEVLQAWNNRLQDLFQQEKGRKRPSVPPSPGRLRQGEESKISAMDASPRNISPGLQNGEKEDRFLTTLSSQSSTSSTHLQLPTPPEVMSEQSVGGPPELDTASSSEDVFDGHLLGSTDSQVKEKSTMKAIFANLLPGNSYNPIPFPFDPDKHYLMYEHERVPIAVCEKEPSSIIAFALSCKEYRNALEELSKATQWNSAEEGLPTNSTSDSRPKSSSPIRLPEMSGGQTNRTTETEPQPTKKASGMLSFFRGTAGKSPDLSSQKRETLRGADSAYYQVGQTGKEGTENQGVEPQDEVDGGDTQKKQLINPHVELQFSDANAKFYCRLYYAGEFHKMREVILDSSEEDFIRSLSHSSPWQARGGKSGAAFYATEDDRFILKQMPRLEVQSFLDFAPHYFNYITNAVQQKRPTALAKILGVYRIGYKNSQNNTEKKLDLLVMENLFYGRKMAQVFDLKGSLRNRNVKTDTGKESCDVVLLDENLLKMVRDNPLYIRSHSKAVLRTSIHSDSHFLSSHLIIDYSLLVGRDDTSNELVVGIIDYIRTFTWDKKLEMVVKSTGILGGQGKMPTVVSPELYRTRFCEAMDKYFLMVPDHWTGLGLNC

Consider `O=C(Nc1cccc([C@@H]2CN(c3ncnc4[nH]ccc34)CCN2CCO)c1)Nc1c(F)cccc1N1CCCC1`, for which the inhibition was 100% in assay [1]; 3.6% in assay [2]; 69% in [3]; 83% in assay [4]; 72% in assay [5]; 71% in assay [6]. The inhibition in assay [7] turned out to be 64%; in assay [8], 100%; in assay [9], 85%; in assay [10], 100%; in assay [11], 0.05%; in assay [12], 67%. The same molecule had an inhibition in assay [13] of 100%.
For the molecule `O=C(Nc1cccc([C@H]2CCCN(c3ncnc4[nH]ccc34)C2)c1)Nc1ccccc1N1CCCC1`, the inhibition in [14] came out at 1.6%; in [15], 100%; in assay [16], 52%; in [17], 72%; in [18], 61%; in [19] it was 58%. For the same molecule, the inhibition in assay [20] worked out at 100%; in assay [21], 77%; in [22], 97%; in assay [23], 99%; in [24], 61%; in assay [25], 87%. The inhibition in assay [26] is 100%.

In general, inhibition refers to the drop in the measured response relative to a control, in per cent.
